ChEMBL document CHEMBL5724914, “Linking interpersonal differences in gut microbiota composition and drug biotransformation activity” (2024)

Key:
[1] = human gut metagenome, 24 h, 2 µM
[2] = (§1) The drug is tested on WLS-069 corresponding to human gut metagenome with ENA study accession number: PRJEB37062 and ENA sample accession number: ERS12561748 for biotransformation under anaerobic condition. The drug concentrations were measured over 9 timepoints collected between 0 and 24 hours of incubation by liquid-chromatography-coupled mass spectrometry (LC–MS); conditions: 2 µM
[3] = as §1, with “WLS-310” for “WLS-069”, “ERS12561785” for “ERS12561748”; conditions: 2 µM
[4] = as §1, with “Z-017” for “WLS-069”, “mouse” for “human”, “ERS12561816” for “ERS12561748”; conditions: 2 µM
[5] = as §1, with “WLS-086” for “WLS-069”, “ERS12561752” for “ERS12561748”; conditions: 2 µM
[6] = as §1, with “WLS-170” for “WLS-069”, “ERS12561762” for “ERS12561748”; conditions: 2 µM
[7] = human gut metagenome, 24 h, 2 µM; remark: listed apart in the source
[8] = human gut metagenome, 24 h, 2 µM; remark: listed apart in the source
[9] = as §1, with “Z-006” for “WLS-069”, “mouse” for “human”, “ERS12561806” for “ERS12561748”; conditions: 2 µM
[10] = human gut metagenome, 24 h, 2 µM; remark: listed apart in the source
[11] = as §1, with “WLS-350” for “WLS-069”, “ERS12561789” for “ERS12561748”; conditions: 2 µM
[12] = as §1, with “Z-018” for “WLS-069”, “pig” for “human”, “ERS12561817” for “ERS12561748”; conditions: 2 µM
[13] = human gut metagenome, 24 h, 2 µM; remark: listed apart in the source
[14] = as §1, with “WLS-010” for “WLS-069”, “ERS12561743” for “ERS12561748”; conditions: 2 µM
[15] = as §1, with “Z-030” for “WLS-069”, “mouse” for “human”, “ERS12561829” for “ERS12561748”; conditions: 2 µM
[16] = as §1, with “Z-028” for “WLS-069”, “mouse” for “human”, “ERS12561827” for “ERS12561748”; conditions: 2 µM
[17] = human gut metagenome, 24 h, 2 µM; remark: listed apart in the source
[18] = human gut metagenome, 24 h, 2 µM; remark: listed apart in the source
[19] = human gut metagenome, 24 h, 2 µM; remark: listed apart in the source
[20] = as §1, with “WLS-039” for “WLS-069”, “ERS12561746” for “ERS12561748”; conditions: 2 µM

Measured: Bacterial Biotransformation
Further: call rule not given here.

O=C(O)CCc1nc(-c2ccccc2)c(-c2ccccc2)o1 [OXAPROZIN]
Compound NOT metabolized: [4] | [9] | [15] | [16]
Compound metabolized: all other assays above

NC(CO)(CO)CO.O=C(c1ccccc1)c1ccc2n1CCC2C(=O)O (centres undefined) [KETOROLAC TROMETHAMINE]
Compound NOT metabolized: [4] | [9] | [12] | [15] | [16]
Compound metabolized: all other assays above

NS(=O)(=O)c1cc2c(cc1Cl)N=C(CSCc1ccccc1)NS2(=O)=O [BENZTHIAZIDE]
Compound metabolized: [19]
Compound NOT metabolized: all other assays above

Nc1ccc(/N=N/c2ccccc2)c(N)n1 [PHENAZOPYRIDINE]
Compound metabolized: all assays above

CC(=O)OCC(=O)[C@@]12N=C(C)O[C@@H]1C[C@H]1[C@@H]3CCC4=CC(=O)C=C[C@]4(C)[C@H]3[C@@H](O)C[C@@]12C [DEFLAZACORT]
Compound metabolized: all assays above

Cc1ccc(-c2cc(C(F)(F)F)nn2-c2ccc(S(N)(=O)=O)cc2)cc1 [CELECOXIB]
Compound metabolized: [1] | [2] | [7] | [8] | [14] | [19] | [20]
Compound NOT metabolized: all other assays above

Cc1cn([C@H]2C[C@H](N=[N+]=[N-])[C@@H](CO)O2)c(=O)[nH]c1=O [ZIDOVUDINE]
Compound metabolized: [4] | [14] | [15] | [16] | [17]
not listed: [20]
Compound NOT metabolized: all other assays above
